Results as given in patent US20250276983A1, “COMPOUNDS AND METHODS FOR MODULATING HER2” (IAMBIC THERAPEUTICS, INC., priority 2022, published 2025).

Assays:
Assay type in all cases: cell-based
[1] = test system: BaF3_HER2YVMA cells; assay: Cell growth inhibition assay, BaF3_HER2YVMA; settings: 72 h, BaF3_HER2YVMA cells, 3 days treatment, CellTiterGlo 2.0; read-out: HER2-YVMA IC50 (nM), cell growth inhibition
[2] = test system: BaF3_HER2WT cells; assay: Cell growth inhibition assay, BaF3_HER2WT; settings: 72 h, 3 days treatment, CellTiterGlo 2.0, read-out: HER2 WT IC50 (nM), cell growth inhibition
[3] = test system: BaF3_EGFRWT cells; assay: Cell growth inhibition assay, BaF3_EGFRWT; settings: 72 h, 80 ng/mL recombinant human EGF, 3 days treatment, CellTiterGlo 2.0, read-out: EGFR WT IC50 (nM), cell growth inhibition

## Cc1cc(Nc2ncnn3ccc(C4CN(C(=O)/C=C/CN5CCC(F)(F)C5)C4)c23)ccc1Oc1ccn2ncnc2c1 [Example 84, (E)-1-(3-(4-((4-([1,2,4]triazolo[1,5-a]pyridin-7-yloxy)-3-methylphenyl)amino)pyrrolo[2,1-f][1,2,4]triazin-5-yl)azetidin-1-yl)-4-(3,3-difluoropyrrolidin-1-yl)but-2-en-1-one]
[1]
  IC50: 200 to 500 nM
[2]
  IC50: < 200 nM
[3]
  IC50: 1500 to 5000 nM

## Cc1cc(Nc2ncnn3ccc(C4CN(C(=O)/C=C/CN5CC(F)C5)C4)c23)ccc1Oc1ccn2ncnc2c1 [Example 38, (E)-1-(3-(4-((4-([1,2,4]triazolo[1,5-a]pyridin-7-yloxy)-3-methylphenyl)amino)pyrrolo[2,1-f][1,2,4]triazin-5-yl)azetidin-1-yl)-4-(3-fluoroazetidin-1-yl)but-2-en-1-one]
[1]
  IC50: < 200 nM
[2]
  IC50: < 200 nM
[3]
  IC50: 1500 to 5000 nM

## C=CC(=O)N1CC2(CC(c3ccn4ncnc(Nc5ccc(Oc6ccn7ncnc7c6)c(C)c5)c34)C2)C1 [Example 17, 1-(6-(4-((4-([1,2,4]triazolo[1,5-a]pyridin-7-yloxy)-3-methylphenyl)amino)pyrrolo[2,1-f][1,2,4]triazin-5-yl)-2-azaspiro[3.3]heptan-2-yl)prop-2-en-1-one]
[1]
  IC50: < 200 nM
[2]
  IC50: < 200 nM
[3]
  IC50: 1500 to 5000 nM

## CN(C)C/C=C/C(=O)N1CC(c2ccn3ncnc(Nc4cnc(Oc5cccc(C(F)(F)F)c5)c(Cl)c4)c23)C1 [Example 90, (E)-1-(3-(4-((5-chloro-6-(3-(trifluoromethyl)phenoxy)pyridin-3-yl)amino)pyrrolo[2,1-f][1,2,4]triazin-5-yl)azetidin-1-yl)-4-(dimethylamino)but-2-en-1-one]
[1]
  IC50: 1500 to 5000 nM
[2]
  IC50: 1500 to 5000 nM
[3]
  IC50: 1500 to 5000 nM

## CO[C@@H]1CN(C/C=C/C(=O)N2CC(c3ccn4ncnc(Nc5ccc(Oc6ccc7c(c6)ncn7C)c(C)c5)c34)C2)C[C@H]1OC [Example 166, (E)-4-((3R,4R)-3,4-dimethoxypyrrolidin-1-yl)-1-(3-(4-((3-methyl-4-((1-methyl-1H-benzo[d]imidazol-5-yl)oxy)phenyl)amino)pyrrolo[2,1-f][1,2,4]triazin-5-yl)azetidin-1-yl)but-2-en-1-one]
[1]
  IC50: < 200 nM
[2]
  IC50: < 200 nM
[3]
  IC50: 1500 to 5000 nM

## Cc1cc(Nc2ncnn3ccc(N4CCCN(C(=O)/C=C/CN5CCOCC5)CC4)c23)ccc1Oc1ccn2ncnc2c1 [Example 80, (E)-1-(4-(4-((4-([1,2,4]triazolo[1,5-a]pyridin-7-yloxy)-3-methylphenyl)amino)pyrrolo[2,1-f][1,2,4]triazin-5-yl)-1,4-diazepan-1-yl)-4-morpholinobut-2-en-1-one]
[1]
  IC50: 1500 to 5000 nM
[2]
  IC50: < 200 nM
[3]
  IC50: 1500 to 5000 nM

## C#CCN(C)C/C=C/C(=O)N1CCC(c2ccn3ncnc(Nc4ccc(Oc5ccn6ncnc6c5)c(C)c4)c23)CC1 [Example 59, (E)-1-(4-(4-((4-([1,2,4]triazolo[1,5-a]pyridin-7-yloxy)-3-methylphenyl)amino)pyrrolo[2,1-f][1,2,4]triazin-5-yl)piperidin-1-yl)-4-(methyl(prop-2-yn-1-yl)amino)but-2-en-1-one]
[1]
  IC50: 200 to 500 nM
[2]
  IC50: < 200 nM
[3]
  IC50: 1500 to 5000 nM

## Cc1cc(Nc2ncnn3ccc(C4=CCN(C(=O)/C=C/CN(C)C)C4)c23)ccc1Oc1ccn2ncnc2c1 [Example 29, (E)-1-(3-(4-((4-([1,2,4]triazolo[1,5-a]pyridin-7-yloxy)-3-methylphenyl)amino)pyrrolo[2,1-f][1,2,4]triazin-5-yl)-2,5-dihydro-1H-pyrrol-1-yl)-4-(dimethylamino)but-2-en-1-one acetate]
[1]
  IC50: 1500 to 5000 nM
[2]
  IC50: < 200 nM
[3]
  IC50: 1500 to 5000 nM

## Cc1cc(Nc2ncnn3ccc(C4CCN(C(=O)/C=C/CN)CC4)c23)ccc1Oc1ccn2ncnc2c1 [Example 150, (E)-1-(4-(4-((4-([1,2,4]triazolo[1,5-a]pyridin-7-yloxy)-3-methylphenyl)amino)pyrrolo[2,1-f][1,2,4]triazin-5-yl)piperidin-1-yl)-4-aminobut-2-en-1-one]
[1]
  IC50: 1500 to 5000 nM
[2]
  IC50: 500 to 1500 nM
[3]
  IC50: 1500 to 5000 nM

## COC/C=C/C(=O)N1CC(c2ccn3ncnc(Nc4ccc(Oc5ccn6ncnc6c5)c(C)c4)c23)C1 [Example 40, (E)-1-(3-(4-((4-([1,2,4]triazolo[1,5-a]pyridin-7-yloxy)-3-methylphenyl)amino)pyrrolo[2,1-f][1,2,4]triazin-5-yl)azetidin-1-yl)-4-methoxybut-2-en-1-one]
[1]
  IC50: 200 to 500 nM
[2]
  IC50: 200 to 500 nM
[3]
  IC50: 1500 to 5000 nM

## C=CC(=O)N1CC2(C1)CN(c1ccn3ncnc(Nc4cnc(Oc5ccn6ncnc6c5)c(Cl)c4)c13)C2 [Example 15, 1-(6-(4-((6-([1,2,4]triazolo[1,5-a]pyridin-7-yloxy)-5-chloropyridin-3-yl)amino)pyrrolo[2,1-f][1,2,4]triazin-5-yl)-2,6-diazaspiro[3.3]heptan-2-yl)prop-2-en-1-one]
[1]
  IC50: > 5000 nM
[2]
  IC50: 1500 to 5000 nM
[3]
  IC50: 1500 to 5000 nM

## Cc1cc(Nc2ncnn3ccc(C4CCN(C(=O)/C=C/CN5CCC6(COC6)C5)CC4)c23)ccc1Oc1ccc2c(c1)ncn2C [Example 129, (E)-1-(4-(4-((3-methyl-4-((1-methyl-1H-benzo[d]imidazol-5-yl)-oxy)phenyl)amino)-pyrrolo[2,1-f][1,2,4]triazin-5-yl)piperidin-1-yl)-4-(2-oxa-6-azaspiro[3.4]octan-6-yl)but-2-en-1-one]
[1]
  IC50: < 200 nM
[2]
  IC50: < 200 nM
[3]
  IC50: 1500 to 5000 nM

## Cc1cc(Nc2ncnn3ccc(C4CCCN(C(=O)/C=C/CN(C)C)CC4)c23)ccc1Oc1ccn2ncnc2c1 (single isomer, unassigned) [Examples 109 and 110, first eluting isomer, (E)-1-(4-(4-((4-([1,2,4]triazolo[1,5-a]pyridin-7-yloxy)-3-methylphenyl)amino)pyrrolo[2,1-f][1,2,4]triazin-5-yl)azepan-1-yl)-4-(dimethylamino)but-2-en-1-one]
[1]
  IC50: < 200 nM
[2]
  IC50: < 200 nM
[3]
  IC50: 1500 to 5000 nM

## C=CC(=O)NC1CCN(C(=O)c2ccn3ncnc(Nc4ccc(Oc5ccn6ncnc6c5)c(C)c4)c23)C1 (stereo not drawn) [Example 4, N-(1-(4-((4-([1,2,4]triazolo[1,5-a]pyridin-7-yloxy)-3-methylphenyl)amino)pyrrolo[2,1-f][1,2,4]triazine-5-carbonyl)pyrrolidin-3-yl)acrylamide]
[1]
  IC50: < 200 nM
[2]
  IC50: < 200 nM
[3]
  IC50: 1500 to 5000 nM

## C=CC(=O)N1CCCC(c2ccn3ncnc(Nc4ccc(Oc5ccn6ncnc6c5)c(C)c4)c23)CC1 (single isomer, unassigned) [Examples 111 and 112, first eluting isomer, 1-(4-(4-((4-([1,2,4]triazolo[1,5-a]pyridin-7-yloxy)-3-methylphenyl)amino)pyrrolo-[2,1-f][1,2,4]triazin-5-yl)azepan-1-yl)prop-2-en-1-one]
[1]
  IC50: < 200 nM
[2]
  IC50: < 200 nM
[3]
  IC50: 1500 to 5000 nM

## Cc1cc(Nc2ncnn3ccc(N4CCC(N(C)C(=O)/C=C/CN(C)C)C4)c23)ccc1Oc1ccn2ncnc2c1 (stereo not drawn) [Example 70, (E)-N-(1-(4-((4-([1,2,4]triazolo[1,5-a]pyridin-7-yloxy)-3-methylphenyl)amino)pyrrolo[2,1-f][1,2,4]triazin-5-yl)pyrrolidin-3-yl)-4-(dimethylamino)-N-methylbut-2-enamide]
[1]
  IC50: < 200 nM
[2]
  IC50: < 200 nM
[3]
  IC50: 1500 to 5000 nM

## Cc1cc(Nc2ncnn3ccc(C4CCN(C(=O)/C=C/CN5CC6COCC6C5)CC4)c23)ccc1Oc1ccn2ncnc2c1 (stereo not drawn) [Example 119, E-1-(4-(4-((4-([1,2,4]triazolo[1,5-a]-208-midazol-7-yloxy)-3-methylphenyl)amino)pyrrolo[2,1-f][1,2,4]triazin-5-yl)piperidin-1-yl)-4-(tetrahydro-1H-furo[3,4-c]pyrrol-5(3H)-yl)but-2-en-1-one]
[1]
  IC50: < 200 nM
[2]
  IC50: < 200 nM
[3]
  IC50: 1500 to 5000 nM

## C=CC(=O)N(C)C1CCN(c2ccn3ncnc(Nc4ccc(Oc5ccn6ncnc6c5)c(C)c4)c23)C1 (stereo not drawn) [Example 72, N-(1-(4-((4-([1,2,4]triazolo[1,5-a]pyridin-7-yloxy)-3-methylphenyl)amino)pyrrolo[2,1-f][1,2,4]triazin-5-yl)pyrrolidin-3-yl)-N-methylacrylamide]
[1]
  IC50: < 200 nM
[2]
  IC50: < 200 nM
[3]
  IC50: 1500 to 5000 nM

## Cc1cc(Nc2ncnn3ccc(C4CCN(C(=O)/C=C/C5CCCN5C)CC4)c23)ccc1Oc1ccn2ncnc2c1 (stereo not drawn) [Example 65, (E)-1-(4-(4-((4-([1,2,4]triazolo[1,5-a]pyridin-7-yloxy)-3-methylphenyl)amino)pyrrolo[2,1-f][1,2,4]triazin-5-yl)piperidin-1-yl)-3-(1-methylpyrrolidin-2-yl)prop-2-en-1-one]
[1]
  IC50: < 200 nM
[2]
  IC50: < 200 nM
[3]
  IC50: 1500 to 5000 nM

## Cc1cc(Nc2ncnn3ccc(C4CCN(C(=O)/C=C/CN5CCC(F)C5)CC4)c23)ccc1Oc1ccn2ncnc2c1 (stereo not drawn) [Example 164, (E)-1-(4-(4-((4-([1,2,4]triazolo[1,5-a]pyridin-7-yloxy)-3-methylphenyl)amino)pyrrolo[2,1-f][1,2,4]triazin-5-yl)piperidin-1-yl)-4-(3-fluoropyrrolidin-1-yl)but-2-en-1-one]
[1]
  IC50: < 200 nM
[2]
  IC50: < 200 nM
[3]
  IC50: 1500 to 5000 nM

## CNC/C=C/C(=O)N1CC(c2ccn3ncnc(Nc4ccc(Oc5ccn6ncnc6c5)c(C)c4)c23)C1 [Example 151, (E)-1-(3-(4-((4-([1,2,4]triazolo[1,5-a]pyridin-7-yloxy)-3-methylphenyl)amino)pyrrolo[2,1-f][1,2,4]triazin-5-yl)azetidin-1-yl)-4-(methylamino)but-2-en-1-one]
[1]
  IC50: < 200 nM
[2]
  IC50: < 200 nM
[3]
  IC50: 1500 to 5000 nM
